# Data as given in ChEMBL document CHEMBL3885881, “DrugMatrix”.
# Species on record: Rattus norvegicus
# Assay: DrugMatrix - Regimen: Daily Repeat
# Format: toxicity, organism-based, Sprague-Dawley
# Design: regimen Daily Repeat, gender Male, age 6-8 weeks
# Conditions: in vivo, po, 10 mg/kg, route oral GAVAGE, dose level Low, vehicle .5 % CMC; for ABSOLUTE BASOPHIL / ABSOLUTE EOSINOPHIL / ABSOLUTE LYMPHOCYTE / ABSOLUTE MONOCYTE / ABSOLUTE SEGMENTED NEUTROPHIL / BASOPHIL / EOSINOPHIL / ERYTHROCYTE COUNT / HEMATOCRIT / HEMOGLOBIN / LEUKOCYTE COUNT / LYMPHOCYTE / MEAN CORPUSCULAR HEMOGLOBIN / MEAN CORPUSCULAR HEMOGLOBIN CONCENTRATION / MEAN CORPUSCULAR VOLUME / MONOCYTE / NEUTROPHIL / NUCLEATED RED BLOOD CELLS / PLATELET COUNT: tissue Blood; for ALANINE AMINOTRANSFERASE / ALBUMIN / ALKALINE PHOSPHATASE / ASPARTATE AMINOTRANSFERASE / BLOOD UREA NITROGEN / CARBON DIOXIDE / CHLORIDE / CHOLESTEROL / CREATINE PHOSPHOKINASE / CREATININE / GLUCOSE / LACTATE DEHYDROGENASE / LIPASE / PHOSPHORUS / POTASSIUM / SODIUM / TOTAL BILIRUBIN / TOTAL PROTEIN / URIC ACID: tissue Plasma
compound,measurement,setting,value
Fc1ccc(C(c2ccc(F)cc2)N2CCN(C/C=C/c3ccccc3)CC2)cc1 [FLUNARIZINE],ABSOLUTE BASOPHIL,"72 h, time 3 day",0 CELLS/uL
same,ABSOLUTE EOSINOPHIL,"72 h, time 3 day",0 CELLS/uL
same,ABSOLUTE LYMPHOCYTE,"72 h, time 3 day",15150 CELLS/uL
same,ABSOLUTE MONOCYTE,"72 h, time 3 day",74.33 CELLS/uL
same,ABSOLUTE SEGMENTED NEUTROPHIL,"72 h, time 3 day",1309 CELLS/uL
same,BASOPHIL,"72 h, time 3 day",0%
same,EOSINOPHIL,"72 h, time 3 day",0%
same,ERYTHROCYTE COUNT,"72 h, time 3 day",6.09 x10E6/uL
same,HEMATOCRIT,"72 h, time 3 day",37.17%
same,HEMOGLOBIN,"72 h, time 3 day",14.73 G/DL
same,LEUKOCYTE COUNT,"72 h, time 3 day",16.53 x10E3/uL
same,LYMPHOCYTE,"72 h, time 3 day",91.33%
same,MEAN CORPUSCULAR HEMOGLOBIN,"72 h, time 3 day",24.2 pg
same,MEAN CORPUSCULAR HEMOGLOBIN CONCENTRATION,"72 h, time 3 day",39.67 G/DL
same,MEAN CORPUSCULAR VOLUME,"72 h, time 3 day",61.03 fL
same,MONOCYTE,"72 h, time 3 day",0.33%
same,NEUTROPHIL,"72 h, time 3 day",8.33%
same,NUCLEATED RED BLOOD CELLS,"72 h, time 3 day",0.33 /100WBC
same,PLATELET COUNT,"72 h, time 3 day",1291 x10E3/uL
same,ALANINE AMINOTRANSFERASE,"72 h, time 3 day",42.67 u/L
same,ALBUMIN,"72 h, time 3 day",4.7 G/DL
same,ALKALINE PHOSPHATASE,"72 h, time 3 day",347.33 u/L
same,ASPARTATE AMINOTRANSFERASE,"72 h, time 3 day",90.33 u/L
same,BLOOD UREA NITROGEN,"72 h, time 3 day",18 mg/dL
same,CARBON DIOXIDE,"72 h, time 3 day",20 mmol/L
same,CHLORIDE,"72 h, time 3 day",101 MEQ/L
same,CHOLESTEROL,"72 h, time 3 day",87.67 mg/dL
same,CREATINE PHOSPHOKINASE,"72 h, time 3 day",406.67 u/L
same,CREATININE,"72 h, time 3 day",0.23 mg/dL
same,GLUCOSE,"72 h, time 3 day",149 mg/dL
same,LACTATE DEHYDROGENASE,"72 h, time 3 day",371.67 u/L
same,LIPASE,"72 h, time 3 day",9 u/L
same,PHOSPHORUS,"72 h, time 3 day",12.27 mg/dL
same,POTASSIUM,"72 h, time 3 day",6.75 MEQ/L
same,SODIUM,"72 h, time 3 day",143.6 MEQ/L
same,TOTAL BILIRUBIN,"72 h, time 3 day",0.2 mg/dL
same,TOTAL PROTEIN,"72 h, time 3 day",6.57 G/DL
same,URIC ACID,"72 h, time 3 day",1.67 mg/dL
same,ABSOLUTE BASOPHIL,"120 h, time 5 day",0 CELLS/uL
same,ABSOLUTE EOSINOPHIL,"120 h, time 5 day",122 CELLS/uL
same,ABSOLUTE LYMPHOCYTE,"120 h, time 5 day",14703 CELLS/uL
same,ABSOLUTE MONOCYTE,"120 h, time 5 day",297.33 CELLS/uL
same,ABSOLUTE SEGMENTED NEUTROPHIL,"120 h, time 5 day",711 CELLS/uL
same,BASOPHIL,"120 h, time 5 day",0%
same,EOSINOPHIL,"120 h, time 5 day",0.67%
same,ERYTHROCYTE COUNT,"120 h, time 5 day",5.61 x10E6/uL
same,HEMATOCRIT,"120 h, time 5 day",36.03%
same,HEMOGLOBIN,"120 h, time 5 day",14.1 G/DL
same,LEUKOCYTE COUNT,"120 h, time 5 day",15.83 x10E3/uL
same,LYMPHOCYTE,"120 h, time 5 day",93%
same,MEAN CORPUSCULAR HEMOGLOBIN,"120 h, time 5 day",25.13 pg
same,MEAN CORPUSCULAR HEMOGLOBIN CONCENTRATION,"120 h, time 5 day",39.17 G/DL
same,MEAN CORPUSCULAR VOLUME,"120 h, time 5 day",64.2 fL
same,MONOCYTE,"120 h, time 5 day",2%
same,NEUTROPHIL,"120 h, time 5 day",4.33%
same,NUCLEATED RED BLOOD CELLS,"120 h, time 5 day",0 /100WBC
same,PLATELET COUNT,"120 h, time 5 day",1316 x10E3/uL
same,ALANINE AMINOTRANSFERASE,"120 h, time 5 day",52 u/L
same,ALBUMIN,"120 h, time 5 day",4.43 G/DL
same,ALKALINE PHOSPHATASE,"120 h, time 5 day",419 u/L
same,ASPARTATE AMINOTRANSFERASE,"120 h, time 5 day",84.33 u/L
same,BLOOD UREA NITROGEN,"120 h, time 5 day",14.67 mg/dL
same,CARBON DIOXIDE,"120 h, time 5 day",24 mmol/L
same,CHLORIDE,"120 h, time 5 day",103.67 MEQ/L
same,CHOLESTEROL,"120 h, time 5 day",74.33 mg/dL
same,CREATINE PHOSPHOKINASE,"120 h, time 5 day",286 u/L
same,CREATININE,"120 h, time 5 day",0.11 mg/dL
same,GLUCOSE,"120 h, time 5 day",150.67 mg/dL
same,LACTATE DEHYDROGENASE,"120 h, time 5 day",187.33 u/L
same,LIPASE,"120 h, time 5 day",8.67 u/L
same,PHOSPHORUS,"120 h, time 5 day",14.07 mg/dL
same,POTASSIUM,"120 h, time 5 day",6.62 MEQ/L
same,SODIUM,"120 h, time 5 day",147.27 MEQ/L
same,TOTAL BILIRUBIN,"120 h, time 5 day",0.2 mg/dL
same,TOTAL PROTEIN,"120 h, time 5 day",6.03 G/DL
same,URIC ACID,"120 h, time 5 day",1.67 mg/dL
